The target of one data set is TNF (Homo sapiens, UniProt P01375). Description: TNF-neutralization bioassay: TNF-induced cell death of LM cells (MTT). The class given is cell-based. To be noted: for inhibition at 50 µM: compound 50 μM, TNF 20 ng/ml, actinomycin D, LM cells, 24 hours; for IC50: inhibition of TNF-induced LM cell death. The protocol:
(§1) First, the addition of recombinant TNF to mouse fibroblast LM cells induces cell death, and thus, by using the same, the TNF-neutralization bioassay was constructed. In other words, LM cells were pretreated with TNF (20 ng/ml) and the compounds synthesized in the above examples at various concentrations (5×10^4 cells/well), and a sensitizer actinomycin D ([…]) was added, and cultured in a CO2 incubator for 24 hours, and then the MTT assay was carried out. At this time, 10 μl of MTT (5 mg/ml stock) was added, reacted for 4 hours, and then dissolved in DMSO to measure the absorbance at 570 nm. First, the TNF cell death inhibition/neutralization action of TNF-target expected compounds at single concentration (50 or 10 μM) was measured. Second, IC50 values were determined by treating with the compounds having an excellent effect at different concentrations. The % inhibition of TNF was calculated using the following formula: % inhibition of TNF=(OD value of a group treated with TNF and compound−OD value of TNF treated group/(OD value of TNF untreated group−OD value of TNF treated group)×100.
(§2) IC50 values were statistically analyzed using Prism 6 (GraphPad) (IC50: 50% inhibitory concentration, CC50: 50% cytotoxic concentration).

Data set [1] is described as follows: Cytotoxicity (CC50) in LM cells, MTT assay. Format: cell-based. As to conditions: mouse, LM cells (mouse fibroblasts); 50% cytotoxic concentration. The protocol: as §1, §2
(In general: Formazan colour is commonly taken as a measure of viable cells.)

SMILES strings stand for the structures.

Sequence of TNF (P01375 77-233 limits assumed): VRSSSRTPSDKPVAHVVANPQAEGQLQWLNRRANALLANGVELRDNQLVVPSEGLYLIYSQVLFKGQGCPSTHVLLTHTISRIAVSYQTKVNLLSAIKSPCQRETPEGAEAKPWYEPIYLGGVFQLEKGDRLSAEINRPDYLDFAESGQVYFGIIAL

By inhibition is commonly meant the relative decrease from the control value, in per cent. Read a high inhibition as a strong effect. As a reminder, the IC50 is the point on the concentration scale where inhibition reaches its midpoint. Broadly, the CC50 is the concentration at which the toxic effect on the cells reaches its halfway point. In general, melting point refers to the temperature of the solid-liquid transition. Compound `O=C(O)c1c(-c2cccc(F)c2)oc2ccccc2c1=O` [Example 16, 2-(3-fluorophenyl)-3-carboxy-(4H)-4-benzopyranone] registered a melting point of 193 to 196 °C. On TNF, 50 µM produced 70.2% inhibition and the IC50 amounted to 16.8 µM. Besides, the half-maximal cytotoxic concentration (CC50) at 24 h in data set [1] was over 50 µM.
The like results for `O=C(O)c1c(-c2cc(F)cc(F)c2)oc2ccccc2c1=O` [Example 17, 2-(3,5-difluorophenyl)-3-carboxy-(4H)-4-benzopyranone] were, in that order, 208 to 209 °C, 71%, 2.5 µM and over 50 µM.
`O=C(O)c1c(-c2ccco2)oc2ccc(Cl)cc2c1=O` [Example 23, 2-(2-furanyl)-3-carboxy-6-chloro-(4H)-4-benzopyranone]: the melting point fell in the range of 196 to 198 °C. For the same compound, on TNF, at 50 µM the inhibition was 70.1% and the IC50 is 2.7 µM. The same compound displayed a cytotoxic concentration (CC50) at 24 h in data set [1] of over 50 µM.
The like results for `O=C(O)c1c(-c2ccco2)oc2ccc(Br)cc2c1=O` [Example 24, 2-(2-furanyl)-3-carboxy-6-bromo-(4H)-4-benzopyranone] were, in that order, 209 to 211 °C, 76.3%, 2.5 µM and over 50 µM.
For the compound `COc1ccc(-c2oc3ccc(Br)cc3c(=O)c2C(=O)O)cc1OC` [Example 40, 2-(3,4-dimethoxyphenyl)-3-carboxy-6-bromo-(4H)-4-benzopyranone], the melting point was 242 to 243 °C. Further, at TNF, 50 µM produced 100% inhibition and the IC50 was determined as 122 µM. Moreover, the CC50 at 24 h in data set [1] is over 50 µM.
The compound `Cc1ccc2c(=O)c(C(=O)O)c(-c3cccc(F)c3)oc2c1` [Example 42, 2-(3-fluorophenyl)-3-carboxy-7-methyl-(4H)-4-benzopyranone] showed a melting point of 178 to 181 °C. Moreover, the inhibition at 50 µM against TNF amounted to 23%.
Taken in the same sequence, the figures for `Cc1ccc2oc(-c3cccc(F)c3)c(C(=O)O)c(=O)c2c1` [Example 43, 2-(3-fluorophenyl)-3-carboxy-6-methyl-(4H)-4-benzopyranone] were 214 to 215 °C and 19.4%.
With `O=C(O)c1c(-c2cccc(F)c2)oc2cc(Cl)ccc2c1=O` [Example 44, 2-(3-fluorophenyl)-3-carboxy-7-chloro-(4H)-4-benzopyranone], the melting point lay in the range of 160 to 163 °C. At TNF, this compound displayed an inhibition at 50 µM of 93.2% and an IC50 of 45.6 µM. Moreover, in data set [1], the half-maximal cytotoxic concentration (CC50) at 24 h was over 50 µM.
As for `O=C(O)c1c(-c2cccc(F)c2)oc2ccc(Cl)cc2c1=O` [Example 45, 2-(3-fluorophenyl)-3-carboxy-6-chloro-(4H)-4-benzopyranone], the melting point was in the range of 216 to 217 °C. At TNF, this compound came in with an inhibition at 50 µM of 88.4% and a 50% inhibitory concentration (IC50) of 18.5 µM. In addition, the CC50 at 24 h in data set [1] was found to be 42 µM.
The like results for `O=C(O)c1c(-c2cccc(F)c2)oc2ccc(Br)cc2c1=O` [Example 46, 2-(3-fluorophenyl)-3-carboxy-6-bromo-(4H)-4-benzopyranone] were, in that order, 222 to 223 °C, 100%, 28.9 µM and over 50 µM.
In turn, `Cc1cccc2c(=O)c(C(=O)O)c(-c3cc(F)cc(F)c3)oc12` [Example 47, 2-(3,5-difluorophenyl)-3-carboxy-8-methyl-(4H)-4-benzopyranone] displayed a melting point of 243 to 244 °C. The same compound showed an inhibition at 50 µM against TNF of 21.4%.
Consider `Cc1ccc2c(=O)c(C(=O)O)c(-c3cc(F)cc(F)c3)oc2c1` [Example 48, 2-(3,5-difluorophenyl)-3-carboxy-7-methyl-(4H)-4-benzopyranone], for which the melting point was in the range of 220 to 222 °C. Also, testing at 50 µM against TNF gave an inhibition of 29%.
The like results for `Cc1ccc2oc(-c3cc(F)cc(F)c3)c(C(=O)O)c(=O)c2c1` [Example 49, 2-(3,5-difluorophenyl)-3-carboxy-6-methyl-(4H)-4-benzopyranone] were, in that order, 238 to 240 °C and 37.7%.
`O=C(O)c1c(-c2cc(F)cc(F)c2)oc2ccc(Cl)cc2c1=O` [Example 50, 2-(3,5-difluorophenyl)-3-carboxy-6-chloro-(4H)-4-benzopyranone] yielded a melting point of 207 to 209 °C. At TNF, this compound had an inhibition at 50 µM of 100% and a 50% inhibitory concentration (IC50) of 5.1 µM. Also, the cytotoxic concentration (CC50) at 24 h in data set [1] turned out to be 36 µM.
With `Cc1cccc2c(=O)c(C(=O)O)c(-c3cccc(F)c3F)oc12` [Example 52, 2-(2,3-difluorophenyl)-3-carboxy-8-methyl-(4H)-4-benzopyranone], the melting point was in the range of 167 to 169 °C. The same compound showed an inhibition at 50 µM at TNF of 18.5%.
On to `Cc1ccc2c(=O)c(C(=O)O)c(-c3cccc(F)c3F)oc2c1` [Example 53, 2-(2,3-difluorophenyl)-3-carboxy-7-methyl-(4H)-4-benzopyranone], for which the melting point lay in the range of 155 to 156 °C. The compound also returned an inhibition at 50 µM against TNF of 22.8%.
As to `Cc1ccc2oc(-c3cccc(F)c3F)c(C(=O)O)c(=O)c2c1` [Example 54, 2-(2,3-difluorophenyl)-3-carboxy-6-methyl-(4H)-4-benzopyranone], the melting point lay in the range of 120 to 122 °C. The inhibition at 50 µM against TNF was 26.5%.
For the compound `O=C(O)c1c(-c2cccc(F)c2F)oc2cc(Cl)ccc2c1=O` [Example 55, 2-(2,3-difluorophenyl)-3-carboxy-7-chloro-(4H)-4-benzopyranone], the melting point is at least 220 °C. For the same compound, at TNF, the inhibition at 50 µM worked out at 100% and inhibition was half-maximal at 33.6 µM (IC50). The compound further returned a cytotoxic concentration (CC50) at 24 h in data set [1] of 25 µM.
Taken in the same sequence, the figures for `O=C(O)c1c(-c2cccc(F)c2F)oc2ccc(Cl)cc2c1=O` [Example 56, 2-(2,3-difluorophenyl)-3-carboxy-6-chloro-(4H)-4-benzopyranone] were at least 120 °C, 100%, 16.4 µM and 49 µM.
Compound `O=C(O)c1c(-c2cccc(F)c2F)oc2ccc(Br)cc2c1=O` [Example 57, 2-(2,3-difluorophenyl)-3-carboxy-6-bromo-(4H)-4-benzopyranone] gave a melting point of at least 120 °C. For the same compound, at TNF, 50 µM produced 100% inhibition and half-maximal inhibition (IC50) was put at 10.3 µM. In data set [1], half-maximal cytotoxicity (CC50 at 24 h) was put at 47 µM.
In turn, `Cc1cccc2c(=O)c(C(=O)O)c(-c3cc(F)ccc3F)oc12` [Example 58, 2-(2,5-difluorophenyl)-3-carboxy-8-methyl-(4H)-4-benzopyranone] gave a melting point of 170 to 172 °C. Besides, the inhibition at 50 µM against TNF amounted to 33.8%.
Taken in the same sequence, the figures for `Cc1ccc2c(=O)c(C(=O)O)c(-c3cc(F)ccc3F)oc2c1` [Example 59, 2-(2,5-difluorophenyl)-3-carboxy-7-methyl-(4H)-4-benzopyranone] were 156 to 158 °C and 32.3%.
Taken in the same sequence, the figures for `Cc1ccc2oc(-c3cc(F)ccc3F)c(C(=O)O)c(=O)c2c1` [Example 60, 2-(2,5-difluorophenyl)-3-carboxy-6-methyl-(4H)-4-benzopyranone] were at least 120 °C and 28.1%.
Consider `Cc1cccc2c(=O)c(C(=O)O)c(-c3ccc(F)c(F)c3)oc12` [Example 64, 2-(3,4-difluorophenyl)-3-carboxy-8-methyl-(4H)-4-benzopyranone], for which the melting point was 203 to 204 °C. This compound also gave an inhibition at 50 µM on TNF of 47.2%.
Taken in the same sequence, the figures for `Cc1ccc2c(=O)c(C(=O)O)c(-c3ccc(F)c(F)c3)oc2c1` [Example 65, 2-(3,4-difluorophenyl)-3-carboxy-7-methyl-(4H)-4-benzopyranone] were 202 to 204 °C and 25.1%.
`Cc1ccc2oc(-c3ccc(F)c(F)c3)c(C(=O)O)c(=O)c2c1` [Example 66, 2-(3,4-difluorophenyl)-3-carboxy-6-methyl-(4H)-4-benzopyranone] showed a melting point of 222 to 223 °C. Besides, the inhibition at 50 µM against TNF was found to be 37%.
`Cc1cccc2c(=O)c(C(=O)O)c(-c3ccc(Cl)cc3)oc12` [Example 68, 2-(4-chlorophenyl)-3-carboxy-8-methyl-(4H)-4-benzopyranone] had a melting point of 217 to 219 °C. This compound also had an inhibition at 50 µM on TNF of 15.8%.
`Cc1ccc2c(=O)c(C(=O)O)c(-c3ccc(Cl)cc3)oc2c1` [Example 69, 2-(4-chlorophenyl)-3-carboxy-7-methyl-(4H)-4-benzopyranone] had a melting point of 220 to 222 °C. Moreover, 50 µM produced 14.6% inhibition on TNF.
For `Cc1ccc2oc(-c3ccc(Cl)cc3)c(C(=O)O)c(=O)c2c1` [Example 70, 2-(4-chlorophenyl)-3-carboxy-6-methyl-(4H)-4-benzopyranone], the melting point lay in the range of 212 to 227 °C. Moreover, 50 µM produced 28.9% inhibition against TNF.
Regarding `O=C(O)c1c(-c2ccc(Cl)cc2)oc2ccccc2c1=O` [Example 73, 2-(4-chlorophenyl)-3-carboxy-(4H)-4-benzopyranone], the melting point is 212 to 213 °C. The compound further came in with an inhibition at 50 µM against TNF of 42%.
